Results as given in US9510598B2, “Nitrogen-containing heterocyclic compounds for plant disease control” (BAYER CROPSCIENCE AG, priority 2012, dated 2016).
Several values for one entry are separate records, joined by “and”; a condition that tells them apart may be missing. Identical values can stand only once.

Conditions: Table 2, formula (II); method [a]: pH 2.7, 0.1% formic acid in water / acetonitrile gradient
Experimental: Measurement of log P values was performed according EEC directive 79/831 Annex V.A8 by HPLC (High Performance Liquid Chromatography) on reversed phase columns with the following methods: ^[a]

SMILES	Log P
C#Cc1cnc2ccc(C3=NOC(C)(C(=O)O)C3)cc2c1 (racemic) [II-10]	1.71[a]
O=C(O)C1(CBr)CC(c2ccc3ncc(Br)cc3c2)=NO1 (racemic) [II-11]	2.19[a]
O=C(O)C1(c2ccccc2)CC(c2ccc3ncc(Br)cc3c2)=NO1 (racemic) [II-12]	2.76[a]
O=C(O)C1(C(F)(F)F)CC(c2cc3cc(Br)cnc3c(F)c2F)=NO1 (racemic) [II-13]	2.01[a]
COC(=O)C1(C(F)(F)F)CC(c2ccc3ncc(Br)cc3c2)=NO1 (racemic) [II-14]	3.4[a]
COC(=O)C1(CCl)CC(c2ccc3ncc(Br)cc3c2)=NO1 (racemic) [II-16]	3.03[a]
COC(=O)C1(c2ccccc2)CC(c2ccc3ncc(Br)cc3c2)=NO1 (racemic) [II-17]	2.69[a]
COC(=O)C1(C2CC2)CC(c2ccc3ncc(Br)cc3c2)=NO1 (racemic) [II-18]	3.27[a]
CCOC(=O)C1(C)CC(c2ccc3ncccc3c2)=NO1 (racemic) [II-20]	1.6[a]
COC(=O)C1(C(F)(F)F)CC(c2cc3cc(Br)cnc3c(F)c2F)=NO1 (racemic) [II-22]	3.72[a]
COC(=O)C1(OC)CC(c2cc3cc(Br)cnc3c(F)c2F)=NO1 (racemic) [II-24]	3.04[a]
COC(=O)C1(C)CC(c2cc(C)c3ncc(Br)cc3c2)=NO1 (stereo not shown) [II80]	3.55[a]
COC(=O)C1(OC)CC(c2ccc3ncc(Br)cc3c2)=NO1 (stereo not shown) [II-25]	3.29[a]
COC(=O)C1(C)CC(c2ccc3ncc(C#C[Si](C)(C)C)cc3c2)=NO1 (stereo not shown) [II-26]	4.31[a]
COC(=O)C1(C)CC(c2cc3cc(Br)cnc3c(F)c2F)=NO1 (stereo not shown) [II-27]	3.06[a]
COC(=O)C1(C)CC(c2cc3cccnc3c(F)c2F)=NO1 (stereo not shown) [II-29]	2.11[a]
COC(=O)C1(C)CC(c2ccc3ncc(I)cc3c2)=NO1 (stereo not shown) [II-30]	2.71[a]
COC(=O)C12CCCC1C(c1ccc3ncc(Br)cc3c1)=NO2 (stereo not shown) [II-31]	3.23[a]
COC(=O)C12OCCCC1C(c1ccc3ncc(Br)cc3c1)=NO2 (stereo not shown) [II-32]	2.80[a]
COC(=O)C1(C)CC(c2ccc3ncc(Br)cc3c2)=NO1 (stereo not shown) [II-33]	2.69[a]
COC(=O)C1(C)CC(c2cc3cc(Br)cnc3cc2F)=NO1 (stereo not shown) [II-34]	2.94[a]
C#Cc1cnc2ccc(C3=NOC(C)(C(=O)OC)C3)cc2c1 (stereo not shown) [II-35]	2.35[a]
O=C(O)C1(CF)CC(c2ccc3ncc(Br)cc3c2)=NO1 (stereo not shown) [II-36]	1.94[a]
O=C(O)C1(C2CC2)CC(c2ccc3ncc(Br)cc3c2)=NO1 (stereo not shown) [II-37]	2.43[a]
COc1nc2ccc(C3=NOC(C)(C(=O)O)C3)cc2cc1Br (stereo not shown) [II-38]	2.64[a]
COC(=O)C1(C(C)=NO)CC(c2ccc3ncc(Br)cc3c2)=NO1 (stereo not shown) [II-39]	2.58[a]

SMILES	Log P
COC(=O)C1(C(C)=O)CC(c2ccc3ncc(Br)cc3c2)=NO1 (stereo not shown) [II-40]	2.94[a]
COC(=O)C1ON=C(c2ccc3ncc(Br)cc3c2)C12CC2 (stereo not shown) [II-41]	2.71[a]
CCOC(=O)C1(C)ON=C(c2ccc3ncc(Br)cc3c2)C1CC (stereo not shown) [II-42]	3.74[a]
CC1(C(=O)O)CC(c2ccc3nc(Cl)c(Br)cc3c2)=NO1 (stereo not shown) [II-43]	2.57[a]
COC(=O)C1(C)CC(c2ccc3nc(Cl)c(Br)cc3c2)=NO1 (stereo not shown) [II-44]	3.74[a]
COC(=O)C1(C)CC(c2ccc3nc(O)c(Br)cc3c2)=NO1 (stereo not shown) [II-45]	1.74[a]
CC1(C(=O)O)CC(c2ccc3nc(C#N)c(Br)cc3c2)=NO1 (stereo not shown) [II-46]	2.23[a]
COC(=O)C1(C)CC(c2ccc3nc(C#N)c(Br)cc3c2)=NO1 (stereo not shown) [II-47]	3.02[a]
CCOC(=O)C1(C)ON=C(c2ccc3ncc(Br)cc3c2)C1OCC (stereo not shown) [II-49]	3.99[a]
COC(=O)CC1(C(=O)O)CC(c2ccc3ncc(Br)cc3c2)=NO1 (stereo not shown) [II-50]	1.98[a]
COC(=O)C12ON=C(c3ccc4ncc(Br)cc4c3)C1C2C (stereo not shown) [II-51]	3.09[a]
COC(=O)C1(CO)CC(c2ccc3ncc(Br)cc3c2)=NO1 (stereo not shown) [II-52]	1.99[a]
C[Si](C)(C)CC1(C(=O)O)CC(c2ccc3ncc(Br)cc3c2)=NO1 (stereo not shown) [II-54]	3.42[a]
C#Cc1cc2cc(C3=NOC(C)(C(=O)O)C3)ccc2nc1Cl (stereo not shown) [II-55]	2.24[a]
C#Cc1cc2cc(C3=NOC(C)(C(=O)OC)C3)ccc2nc1Cl (stereo not shown) [II-56]	3.01[a]
CCOC(=O)C1(OCC)CC(c2ccc3ncc(Br)cc3c2)=NO1 (stereo not shown) [II-57]	2.53[a]
CCOC(=O)C1(C[Si](C)(C)C)CC(c2ccc3ncc(Br)cc3c2)=NO1 (stereo not shown) [II-58]	3.80[a]
CC(C)OC(=O)C1(C)CC(c2ccc3ncc(Br)cc3c2)=NO1 (stereo not shown) [II-59]	3.53[a]
COC(=O)C1(C)CC(c2ccc3nc(Cl)c(I)cc3c2)=NO1 (stereo not shown) [II-60]	3.34 and 3.62
CCOC(=O)C1(CF)CC(c2ccc3ncc(Br)cc3c2)=NO1 (stereo not shown) [II-62]	3.13[a]
CCOC(=O)C1(CC)CC(c2ccc3ncc(Br)cc3c2)=NO1 (stereo not shown) [II-63]	3.53[a]
CCC1(C(=O)O)CC(c2ccc3ncc(Br)cc3c2)=NO1 (stereo not shown) [II-64]	2.30[a]
O=C(O)C1(CC2CC2)CC(c2ccc3ncc(Br)cc3c2)=NO1 (stereo not shown) [II-66]	2.70[a]
CCOC(=O)C1(CC)CC(c2ccc3ncc(C#C[Si](C)(C)C)cc3c2)=NO1 (stereo not shown) [II-67]	5.19[a]
COC(=O)C1(C)CC(c2ccc3nc(C#N)c(I)cc3c2)=NO1 (stereo not shown) [II-68]	3.02[a]
C#Cc1cnc2ccc(C3=NOC(CC)(C(=O)O)C3)cc2c1 (stereo not shown) [II-69]	2.05[a]

SMILES	Log P
C=C(Cl)C1(C(=O)OC)CC(c2ccc3ncc(Br)cc3c2)=NO1 (stereo not shown) [II-70]	3.68[a]
C#Cc1cnc2ccc(C3=NOC(OC)(C(=O)OCCCC(C)NC(C)CCCOC(=O)C4(OC)CC(c5ccc6ncc(C#C)cc6c5)=NO4)C3)cc2c1 (stereo not shown) [II-71]	2.20[a]
C=C(C)C1(C(=O)OC)CC(c2ccc3ncc(Br)cc3c2)=NO1 (stereo not shown) [II-72]	3.44[a]
C=C(C)C1(C(=O)O)CC(c2ccc3ncc(Br)cc3c2)=NO1 (stereo not shown) [II-73]	2.52[a]
C#Cc1cnc2c(C)cc(C3=NOC(C)(C(=O)OC)C3)cc2c1 (stereo not shown) [II-74]	3.07[a]
C#Cc1cnc2c(Cl)cc(C3=NOC(C)(C(=O)OC)C3)cc2c1 (stereo not shown) [II-75]	2.92[a]
COC(=O)C1(C)CC(c2cc(Cl)c3ncc(Br)cc3c2)=NO1 (stereo not shown) [II-76]	3.29[a]
C#Cc1cnc2c(Cl)cc(C3=NOC(C)(C(=O)O)C3)cc2c1 (stereo not shown) [II-78]	2.20[a]
CC1(C(=O)O)CC(c2cc(Cl)c3ncc(Br)cc3c2)=NO1 (stereo not shown) [II-79]	2.45[a]
C#Cc1cnc2c(C)cc(C3=NOC(C)(C(=O)O)C3)cc2c1 (stereo not shown) [II-81]	2.30[a]
CC1(C(=O)O)CC(c2ccc3nc(C#N)c(I)cc3c2)=NO1 (stereo not shown) [II-82]	2.24[a]
CC1(C(=O)O)CC(c2ccc3nc(Cl)c(I)cc3c2)=NO1 (stereo not shown) [II-83]	2.59[a]
COC(=O)C1(SC)CC(c2ccc3ncc(Br)cc3c2)=NO1 (stereo not shown) [II-84]	3.05[a]
Cc1cc(C2=NOC(C)(C(=O)O)C2)cc2cc(Br)cnc12 (stereo not shown) [II-85]	2.64[a]
C#Cc1cnc2c(C)cc(C3=NOC(OC)(C(=O)OCC)C3)cc2c1 (stereo not shown) [II-86]	3.46[a]
CCOC(=O)C1(OC)CC(c2cc(Cl)c3ncc(Br)cc3c2)=NO1 (stereo not shown) [II-87]	3.69[a]
CSC1(C(=O)O)CC(c2ccc3ncc(Br)cc3c2)=NO1 (stereo not shown) [II-88]	2.01[a]
COC1(C(=O)O)CC(c2cc(Cl)c3ncc(Br)cc3c2)=NO1 (stereo not shown) [II-89]	2.19[a]
C#Cc1cnc2c(Cl)cc(C3=NOC(OC)(C(=O)O)C3)cc2c1 (stereo not shown) [II-90]	1.95[a]
CCOC(=O)C1(OC)CC(c2cc(C)c3ncc(Br)cc3c2)=NO1 (stereo not shown) [II-91]	3.99[a]
COC1(C(=O)O)CC(c2cc(C)c3ncc(Br)cc3c2)=NO1 (stereo not shown) [II-92]	2.42[a]
C#Cc1cnc2c(C)cc(C3=NOC(OC)(C(=O)O)C3)cc2c1 (stereo not shown) [II-93]	2.07[a]
N#CC1(C(=O)O)CC(c2ccc3ncc(Br)cc3c2)=NO1 (stereo not shown) [II-94]	1.42[a]
COC(=O)C1(C)CC(c2ccc3ncc(Br)c(Cl)c3c2)=NO1 (stereo not shown) [II-95]	3.29[a]
CC1(C(=O)O)CC(c2ccc3ncc(Br)c(Cl)c3c2)=NO1 (stereo not shown) [II-96]	2.34[a]

Same assay, conditions: Table 3, formula (V); method [a]: pH 2.7, 0.1% formic acid in water / acetonitrile gradient

SMILES	Log P
ON=Cc1cc2cccnc2c(F)c1F [V-01]	1.48[a]
ON=C(Cl)c1cc2cccnc2c(F)c1F [V-02]	2.04[a]
ON=C(Cl)c1cc2cc(Br)cnc2c(F)c1F [V-03]	2.92[a]
ON=Cc1cc2cc(Br)cnc2cc1F [V-05]	2.21[a]
ON=C(Cl)c1cc2cc(Br)cnc2cc1F [V-06]	2.63[a]
ON=Cc1ccc2ncc(I)cc2c1 [V-07]	1.98[a]
ON=C(Cl)c1ccc2ncc(I)cc2c1 [V-08]	2.63[a]
ON=Cc1ccc2ncc(Br)cc2c1 [V-09]	1.88[a]
